# Where no end group is shown, it is not given here.
# Columns and labels:
# [1] = tested on: HLA-A*2401; assay: Competition based cellular binding assay, HLA-A*2401 (B-cell line VIJF); design: species or system human; settings: for Peptide Binding Affinity: HLA-A*2401, IC50 category; for HLA binding Affinity (Table 5): HLA type A24
# [2] = tested on: HLA-A*2401; assay: Stability of peptide-HLA complex, binding at 4° C. and 20° C., HLA-A*2401; design: species or system human; settings: for Peptide Binding Stability: HLA-A*2401, IC50 at 20° C. vs 4° C.; for HLA binding Stability (Table 5): HLA type A24
# Procedure: Stability of other peptide-HLA complexes was preferably determined as follows. […] Peptides of >50% of the initial complexes was lost within 2 hours were considered unstable. […] The rest was designated as unstable peptide binding.
# Peptides 8-11 residues in length were selected based on typical anchor residues for HLA-A*0101, A*0301, A*1101 and HLA-A*2401 (Rammensee H G et al). The capacity of peptides to bind was tested in a competition based cellular binding assay as previously described (van der Burg S H et al 1995). FL-labeled reference peptides were synthesized as Cys-derivative (van der Burg S H et al 1995). Fluorescence labeled reference peptides used were: YLEPAC(FL)AK (SEQ ID NO: 87) (HLA-A*0101) and KVFPC(FL)ALINK (SEQ ID NO: 88) (HLA-A*1101) (Sette A et al), KVFPC(FL)ALINK (SEQ ID NO: 89) (HLAA*0301) (van der Burg S H et al 1995) and RYLKC(FL)QQLL (SEQ ID NO: 90) (A*2401) (Dai L C et al). B-cell lines used are: CAA (A*0101), EKR (A*0301), BVR (A*1101), VIJF (A*2401). The relative binding capacity of the peptides is expressed as the peptide concentration to inhibit 50% (1050) of the binding of the reference peptide. […] Peptide stabilization for HLA-A*0201 was performed as previously described (van der Burg S H et al, 1996). Peptides of >50% of the initial complexes was lost within 2 hours were considered unstable. Stability of other peptide-HLA complexes was determined as follows. Peptide binding was performed at 4° C. and 20° C. and 1050 were determined. […] The rest was designated as unstable peptide binding.
# [3] = biological target: T1, 20S immuno-proteasomes from mouse B-cell line (RMA) (Mus musculus, UniProt O35955+P28063+P28076); assay: In vitro proteasome mediated digestion of 30-mers, mass spectrometry, immunoproteasome RMA; type: biochemical; settings: 30 residue long precursor peptides
# T1 construct: 20S immuno-proteasomes were purified from a mouse B-cell line (RMA); endogenous in cells; host or cells: RMA cells; 20S proteasome purified from them
# Procedure: (§1) In the context of the invention, “being inefficiently processed by a proteasome” preferably means that within the first hour of digestion by a proteasome less than 1% of total digested peptide is found. The processing by a proteasome is preferably assessed by incubating a purified proteasome, more preferably a human proteasome with a peptide comprising the potential CTL epitope (30 amino acid length approximately) in a proteasome digestion buffer during at least one hour at 37° C. The reaction is subsequently stopped by adding trifluoroacetic acid. Analysis of the digested peptides is performed with electrospray ionization mass spectrometry (see example 1). Even more preferably, the human proteasome is an immunoproteasome from B-LCL JY cells (Kessler J H et al. 2001).
# (§2) 20S immuno-proteasomes were purified from a mouse B-cell line (RMA) and a human B-LCL cell line (JY) and 20S household proteasomes were purified from human tumor cell line (HeLa) as described (Kessler J H et al 2001). To assess kinetics, digestions were performed with different incubation periods as indicated. Briefly, peptides containing the (potential) CTL epitopes (30 mers, 20 μg) were incubated with 1 μg of purified proteasome at 37° C. for 1 h, 4 h and 24 h in 300 μl proteasome digestion buffer, trifluoroacetic acid (30 μl) was added to stop the digestion and samples were stored at −20° C. before mass spectrometric analysis. Electrospray ionization mass spectrometry was performed on a hybrid quadrupole time-of-flight mass spectromter, a Q-TOF (Micromass), equipped with an on-line nanoelectrospray interface with an approximate flow rate of […] as described (Kessler J H et al 2001). The peaks in the mass spectrum were searched in the digested precursor peptide using the Biolynx/proteins software (Micromass) supplied with the mass spectrometer. The intensity of the peaks in the mass spectra was used to establish the relative amounts of peptides generated after proteasome digestion. The relative amounts of the peptides are given as a percentage of the total amount of peptide digested by the proteasome at the indicated incubation time. Major cleavage sites are defined as more than >1% of total digested peptide within the first hour.
# [4] = biological target: T2, 20S immuno-proteasomes from human B-LCL cell line (JY) (Homo sapiens, UniProt P28062+P28065+P40306); assay: In vitro proteasome mediated digestion of 30-mers, mass spectrometry, immunoproteasome JY; type: biochemical; settings: 30 residue long precursor peptides
# T2 construct: purified from a mouse B-cell line (RMA) and a human B-LCL cell line (JY); endogenous in cells; host or cells: B-LCL JY cells; 20S proteasome purified from them
# Procedure: as §1, §2
# [5] = biological target: T3, 20S household proteasomes from human tumor cell line (HeLa) (Homo sapiens, UniProt P28072+P28074+Q99436); assay: In vitro proteasome mediated digestion of 30-mers, mass spectrometry, household proteasome HeLa; type: biochemical; settings: 30 residue long precursor peptides
# T3 construct: 20S household proteasomes were purified from human tumor cell line (HeLa); endogenous in cells; host or cells: HeLa cells; 20S proteasome purified from them
# Procedure: as §1, §2
# [6] = biological target: T4, HLA-A*0301 (Homo sapiens, UniProt P04439); assay: Competition based cellular binding assay, HLA-A*0301 (B-cell line EKR)
# T4 construct: B-cell lines used are: CAA (A*0101), EKR (A*0301), BVR (A*1101), VIJF (A*2401); endogenous in cells; host or cells: B-cell line EKR
# [7] = biological target: T5, HLA-A*1101 (Homo sapiens, UniProt P04439, A114D/D185E/E176A/F33Y/L180Q/S129P/T187R); assay: Competition based cellular binding assay, HLA-A*1101 (B-cell line BVR); settings: HLA-A*1101; IC50 category
# T5 construct: B-cell lines used are: CAA (A*0101), EKR (A*0301), BVR (A*1101), VIJF (A*2401); endogenous in cells; host or cells: B-cell line BVR
# [8] = biological target: T4, HLA-A*0301; assay: Stability of peptide-HLA complex, binding at 4° C. and 20° C., HLA-A*0301; settings: for Peptide Binding Stability: HLA-A*0301, IC50 at 20° C. vs 4° C.
# Summary of the method: (§3)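 Competition binding used B-cell lines CAA (A*0101), EKR (A*0301), BVR (A*1101) and VIJF (A*2401) against fluorescein-labelled reference peptides. IC50 is the peptide concentration inhibiting 50% of reference binding. Binding was run at 4 °C and 20 °C with IC50 determined at each; complexes losing >50% within 2 hours were deemed unstable.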
# [9] = biological target: T5, HLA-A*1101; assay: Stability of peptide-HLA complex, binding at 4° C. and 20° C., HLA-A*1101; settings: HLA-A*1101; IC50 at 20° C. vs 4° C.
# Summary of the method: as §3
molecule,measurement,setting,value
CC(C)C[C@H](NC(=O)[C@H](CC(C)C)NC(=O)[C@H](CCCCN)NC(=O)[C@H](Cc1c[nH]c2ccccc12)NC(=O)[C@H](CC(C)C)NC(=O)[C@H](CC(=O)O)NC(=O)[C@H](CO)NC(=O)[C@H](Cc1ccccc1)NC(=O)[C@@H](N)[C@@H](C)O)C(=O)O [p53 18-26],Peptide Binding Affinity,[1],high
same,Peptide Binding Stability,[2],+ (Stable peptides displayed IC50 at 20 °C that deviated <2 times of the IC50 at 4° C.)
same,"Proteasomal Cleavage of C-terminus, IP (RMA)",[3],+ (Major cleavage sites are defined as more than >1% of total digested peptide within the first hour)
same,"Proteasomal Cleavage of C-terminus, IP (JY)",[4],+ (Major cleavage sites are defined as more than >1% of total digested peptide within the first hour)
same,"Proteasomal Cleavage of C-terminus, HH (HeLa)",[5],+ (Major cleavage sites are defined as more than >1% of total digested peptide within the first hour)
CC(C)C[C@H](NC(=O)[C@H](CCCNC(=N)N)NC(=O)[C@H](Cc1ccccc1)NC(=O)CNC(=O)[C@H](Cc1ccc(O)cc1)NC(=O)[C@H](CO)NC(=O)CNC(=O)[C@H](CCC(N)=O)NC(=O)[C@H](Cc1ccc(O)cc1)NC(=O)[C@@H](N)[C@@H](C)O)C(=O)O [p53 102-111],Peptide Binding Affinity,[1],high
same,Peptide Binding Stability,[2],+ (Stable peptides displayed IC50 at 20 °C that deviated <2 times of the IC50 at 4° C.)
same,"Proteasomal Cleavage of C-terminus, IP (RMA)",[3],+ (Major cleavage sites are defined as more than >1% of total digested peptide within the first hour)
same,"Proteasomal Cleavage of C-terminus, IP (JY)",[4],+ (Major cleavage sites are defined as more than >1% of total digested peptide within the first hour)
same,"Proteasomal Cleavage of C-terminus, HH (HeLa)",[5],+ (Major cleavage sites are defined as more than >1% of total digested peptide within the first hour)
CSCC[C@H](NC(=O)[C@@H](N)CCCCN)C(=O)N[C@@H](Cc1ccccc1)C(=O)N[C@@H](CS)C(=O)N[C@@H](CCC(N)=O)C(=O)N[C@@H](CC(C)C)C(=O)N[C@@H](C)C(=O)N[C@@H](CCCCN)C(=O)O [p53 132-139],Peptide Binding Affinity,"[6]; HLA-A*0301, IC50 category",high
same,Peptide Binding Affinity,[7],high
same,Peptide Binding Stability,[8],+ (Stable peptides displayed IC50 at 20 °C that deviated <2 times of the IC50 at 4° C.)
same,Peptide Binding Stability,[9],+ (Stable peptides displayed IC50 at 20 °C that deviated <2 times of the IC50 at 4° C.)
same,"Proteasomal Cleavage of C-terminus, IP (RMA)",[3],+ (Major cleavage sites are defined as more than >1% of total digested peptide within the first hour)
same,"Proteasomal Cleavage of C-terminus, IP (JY)",[4],+ (Major cleavage sites are defined as more than >1% of total digested peptide within the first hour)
same,"Proteasomal Cleavage of C-terminus, HH (HeLa)",[5],+ (Major cleavage sites are defined as more than >1% of total digested peptide within the first hour)
CC(C)C[C@H](NC(=O)[C@H](Cc1ccc(O)cc1)NC(=O)[C@@H](N)CCC(=O)O)C(=O)N[C@@H](CC(=O)O)C(=O)N[C@@H](CC(=O)O)C(=O)N[C@@H](CCCNC(=N)N)C(=O)N[C@@H](CC(N)=O)C(=O)N[C@H](C(=O)N[C@@H](Cc1ccccc1)C(=O)O)[C@@H](C)O [p53 204-212],HLA binding Affinity (Table 5),[1],high
same,Peptide Binding Affinity,[1],high
same,HLA binding Stability (Table 5),[2],+ (Stable peptides displayed IC50 at 20 °C that deviated <2 times of the IC50 at 4° C.)
same,Peptide Binding Stability,[2],+ (Stable peptides displayed IC50 at 20 °C that deviated <2 times of the IC50 at 4° C.)
"CSCC[C@H](N)C(=O)N[C@@H](Cc1ccccc1)C(=O)N[C@@H](CCCNC(=N)N)C(=O)N[C@@H](CCC(=O)O)C(=O)N[C@@H](CC(C)C)C(=O)N[C@@H](CC(N)=O)C(=O)N[C@@H](CCC(=O)O)C(=O)N[C@@H](C)C(=O)N[C@@H](CC(C)C)C(=O)O [p53 340-348, MFRELNEAL]",HLA binding Affinity (Table 5),[1],high
same,Peptide Binding Affinity,[1],high
same,HLA binding Stability (Table 5),[2],+/− (Peptides that displayed IC50 at 20 °C of more than twice the IC50 at 4 °C but IC50 < 15 μM were considered to bind with intermediate stability.)
same,Peptide Binding Stability,[2],+/− (Peptides that displayed IC50 at 20 °C of more than twice the IC50 at 4 °C but IC50 < 15 μM were considered to bind with intermediate stability.)
KGQSTSRHK [p53 373-381],HLA binding Affinity (Table 5),[6]; HLA type A3,int
same,IC50,"[6]; HLA-A*0301, IC50 category, read-out: Peptide Binding Affinity",5 to 15 µM
same,HLA binding Stability (Table 5),[8]; HLA type A3,− (The rest was designated as unstable peptide binding.)
same,Peptide Binding Stability,[8],+/− (Peptides that displayed IC50 at 20 °C of more than twice the IC50 at 4 °C but IC50 < 15 μM were considered to bind with intermediate stability.)
same,"Proteasomal Cleavage of C-terminus, IP (RMA)",[3],+ (Major cleavage sites are defined as more than >1% of total digested peptide within the first hour)
same,"Proteasomal Cleavage of C-terminus, IP (JY)",[4],+ (Major cleavage sites are defined as more than >1% of total digested peptide within the first hour)
same,"Proteasomal Cleavage of C-terminus, HH (HeLa)",[5],+ (Major cleavage sites are defined as more than >1% of total digested peptide within the first hour)
